One assay concerns 80S14 (p21-deficient) cells. The experiment in a line: Cytotoxicity assay using isogenic cell lines: IC50 in 80S14 (p21-deficient) cells, SRB. It is filed as cell-based, human. Particulars: 80S14 (p21-deficient) cells, 5 days, SRB; class symbols; read-out: IC50 for 80S14. The method, boiled down:
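IC50 is the concentration halving proliferation relative to untreated controls, read from SRB absorbance (560 nm) after TCA fixation. Test agent dilutions (5 pM–50 μM or 170 pg/ml–10 μg/ml) were left on p21-deficient 80S14 cells (12,000/well, pre-incubated overnight) for 5 days at 37 °C.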
As for “N-{3-[3-(2-Thienylcarbonyl)pyrazolo[1,5-a]pyrimidin-7-yl]phenyl}-3-trifluoromethyl)benzamide [Example 281]”, the IC50 was under 1 µM.
In the case of “3.5-Dinitro-N-{3-[3-(2-thienylcarbonyl)pyrazolo[1,5-a]pyrimidin-7-yl]phenyl}benzamide [Example 288]”, the IC50 lay in the range of 10 to 50 µM.

Staying with this assay, now noted: 80S14 p21-deficient cells, 5 days incubation, SRB; read-out: IC50 for 80SI4.
As to `O=C(c1cccs1)c1cnn2c(-c3cccc(NC(=O)[C@@H]4CCCN4)c3)ccnc12` [Example 85], the IC50 lay within 1 to 10 µM.
For `O=C(c1cccs1)c1cnn2c(-c3cccc(NC(=O)[C@@H]4CCCN4C(=O)C(F)(F)F)c3)ccnc12` [Example 52], the IC50 lay within 1 to 10 µM.
Take `C=C(C)OC(=O)Nc1cccc(-c2ccnc3c(C(=O)c4cccs4)cnn23)c1` [Example 21]: the IC50 is under 1 µM.

Still in this assay, the particulars now being: Homo sapiens, 80S14, 120 h, read-out: IC50 for 80S14 (uM).
`CC(C)OC(=O)Nc1cccc(-c2ccnc3c(C(=O)c4ccccc4)cnn23)c1` [Example 294, Isopropyl 3-(3-benzoylpyrazolo[1,5-a]pyrimidin-7-yl)phenylcarbamate]: the IC50 is under 1 µM.
In the case of `CC(C)OC(=O)Nc1cccc(-c2ccnc3c(C(=O)c4ccoc4)cnn23)c1` [Example 305, Isopropyl 3-[3-(3-furoyl)pyrazolo[1,5-a]pyrimidin-7-yl]phenylcarbamate], the IC50 lay within 1 to 10 µM.
With `CC(=O)Nc1cccc(-c2ccnc3c(C(=O)c4cccs4)cnn23)c1` [Example 250, N-[3-[3-(2-Thienylcarbonyl)pyrazolo[1,5-a]pyrimidin-7-yl]phenyl}-acetamide], the IC50 is 1 to 10 µM.

The assay is the same for the next values; noted with them: Homo sapiens, 80S14, 120 h, read-out: IC50 for 80SI4 (uM).
Take `Cc1ccc(OC(=O)Nc2cccc(-c3ccnc4c(C(=O)c5cccs5)cnn34)c2)cc1` [Example 23, 4-methylphenyl 3-[3-(thien-2-ylcarbonyl)pyrazolo[1,5-a]pyrimidin-7-yl]phenylcarbamate]: the 50% inhibitory concentration (IC50) fell in the range of 10 to 50 µM.

The assay is the same for the next values; noted with them: Homo sapiens, 120 h; 80S14 (p21-deficient) cells, 5 days, SRB; class symbols; read-out: IC50 for 80S14.
Consider `C=CC(=O)Nc1cccc(-c2ccnc3c(C(=O)c4cccs4)cnn23)c1` [Example 272, N-{3-[3-(2-Thienylcarbonyl)pyrazolo[1,5-a]pyrimidin-7-yl]phenyl}acrylamide], for which the IC50 was under 1 µM.
Consider `CCN(C(=O)C1CC1)c1cccc(-c2ccnc3c(Cl)cnn23)c1` [Example 255, N-[3-(3-Chloropyrazolo[1,5-a]pyrimidin-7-yl)phenyl]-N-ethyl-cyclopropanecarboxamide], for which the IC50 lay within 10 to 50 µM.
With `O=C(c1ccco1)c1cnn2c(-c3cccc(NC(=O)C4CCCC4)c3)ccnc12` [Example 302, N-{3-[3-(2-Furoyl)pyrazolo[1,5-a]pyrimidin-7-yl]phenyl}cyclopentanecarboxamide], the IC50 is under 1 µM.
As for `CN(C(=O)C1CC1)c1cccc(-c2ccnc3c(C(=O)c4ccccc4)cnn23)c1` [Example 236, N-[3-(3-benzoylpyrazolo[1,5-a]-pyrimidin-7-yl)phenyl]-N-methyl-cyclopropanecarboxamide], the IC50 was in the range of 10 to 50 µM.
In the case of `O=C(c1cccs1)c1cnn2c(-c3cccc(-n4cccc4)c3)ccnc12` [Example 270, [7-[3-(1H-Pyrrol-1-yl)phenyl]pyrazolo[1,5-a]pyrimidin-3-yl]-2-thienyl-methanone], the IC50 was 1 to 10 µM.
Consider `COc1ccc(-c2ccnc3c(C(=O)c4cccs4)cnn23)c(OC)c1` [Example 246, [7-(2,4-dimethoxyphenyl)pyrazolo[1,5-a]-pyrimidin-3-yl}-2-thienyl-methanone], for which the IC50 was 10 to 50 µM.
On to `C#CCN(C(=O)C1CC1)c1cccc(-c2ccnc3c(C(=O)c4cccs4)cnn23)c1` [Example 259, N-2-Propynyl-N-[3-[3-(2-thienylcarbonyl)pyrazolo[1,5-a]pyrimidin-7-yl]phenyl}-cyclopropanecarboxamide], for which the IC50 fell in the range of 1 to 10 µM.
The same measure, in the same setting: the same measure for `O=C(c1cccs1)c1cnn2c(-c3cccc(-c4ccc(CN5CCOCC5)cc4)c3)ccnc12` [Example 459, {7-[4′-(Morpholin-4-ylmethyl)-1,1′-biphenyl-3-yl]pyrazolo[1,5-a]pyrimidin-3-yl}(thien-2-yl)methanone]: under 1 µM.
In the case of `CCCCCC/C(=C\c1ccccc1)CNc1cccc(-c2ccnc3c(C(=O)c4cccs4)cnn23)c1` [Example 409, [7-(3-{[(2E)-2-Hexyl-3-phenylprop-2-enyl]amino}phenyl)pyrazolo[1,5-a]pyrimidin-3-yl] (thien-2-yl)methanone], the IC50 lay in the range of 10 to 50 µM.
For `CC(C)(C)c1ccc(C(=O)Nc2cccc(-c3ccnc4c(C(=O)c5cccs5)cnn34)c2)cc1` [Example 287, 4-(tert-butyl)-N-{3-[3-(2-thienylcarbonyl)pyrazolo[1,5-a]pyrimidin-7-yl]phenyl}benzamide], the IC50 lay within 10 to 50 µM.

Staying with this assay, now noted: Homo sapiens, 120 h; 80S14 (p21-deficient) cells, 5 days, SRB; numeric value; read-out: IC50 for 80S14.
Turning to `CCCCNC(=N)OC(=N)N(CCCC)c1cccc(-c2ccnc3c(C(=O)c4cccs4)cnn23)c1` [Example 292, N,N′-Dibutyl-N-{3-[3-(2-thienylcarbonyl)pyrazolo[1,5-a]pyrimidin-7-yl]phenyl}dicarbonimidic diamide], the IC50 is 4.5 µM.

The same assay, now with this note: Homo sapiens, 120 h; 80S14 p21-deficient cells, 5 days incubation, SRB; read-out: IC50 for 80SI4.
Turning to `COc1ccc(CC(=O)Nc2cccc(-c3ccnc4c(C(=O)c5cccs5)cnn34)c2)cc1` [Example 106, 2-(4-methoxyphenyl)-N-{3-[3-(thien-2-ylcarbonyl)pyrazolo[1,5-a]pyrimidin-7-yl]phenyl}acetamide], the IC50 was under 1 µM.
As to `O=C(c1cccs1)c1cnn2c(-c3cccc(NS(=O)(=O)c4ccc(F)cc4)c3)ccnc12` [Example 34, 4-fluoro-N-{3-[3-(thien-2-ylcarbonyl)pyrazolo[1,5-a]pyrimidin-7-yl]phenyl}benzenesulfonamide], the IC50 is under 1 µM.
With `CC(CC(=O)Nc1cccc(-c2ccnc3c(C(=O)c4cccs4)cnn23)c1)CC(C)(C)C` (stereo not drawn) [Example 140, 3,5,5-trimethyl-N-{3-[3-(thien-2-ylcarbonyl)pyrazolo[1,5-a]pyrimidin-7-yl]phenyl}hexanamide], the IC50 was under 1 µM.
With `CC(C)C(C)OC(=O)Nc1cccc(-c2ccnc3c(C(=O)c4cccs4)cnn23)c1` (stereo not drawn) [Example 191, 1,2-dimethylpropyl 3-[3-(thien-2-ylcarbonyl)pyrazolo[1,5-a]pyrimidin-7-yl]phenylcarbamate], the IC50 is under 1 µM.
The same measure, in the same setting: the same measure for `O=C(Nc1cccc(-c2ccnc3c(C(=O)c4cccs4)cnn23)c1)c1cccc(F)c1` [Example 98, 3-fluoro-N-{3-[3-(thien-2-ylcarbonyl)pyrazolo[1,5-a]pyrimidin-7-yl]phenyl}benzamide]: under 1 µM; for `C=CCOC(=O)Nc1cccc(-c2c(C)cnc3c(C(=O)c4cccs4)cnn23)c1` [Example 210, allyl 3-[6-methyl-3-(thien-2-ylcarbonyl)pyrazolo[1,5-a]pyrimidin-7-yl]phenylcarbamate]: 10 to 50 µM; for `O=C(Cc1ccc(Cl)cc1)Nc1cccc(-c2ccnc3c(C(=O)c4cccs4)cnn23)c1` [Example 108, 2-(4-chlorophenyl)-N-{3-[3-(thien-2-ylcarbonyl)pyrazolo[1,5-a]pyrimidin-7-yl]phenyl}acetamide]: under 1 µM.
Still for that read-out and setting: the same measure for `O=C(Nc1cccc(-c2ccnc3c(C(=O)c4cccs4)cnn23)c1)OCCN1CCCCC1` [Example 180, 2-piperidin-1-ylethyl 3-[3-(thien-2-ylcarbonyl)pyrazolo[1,5-a]pyrimidin-7-yl]phenylcarbamate]: 1 to 10 µM.
Take `CCC(CC)C(=O)NCC(=O)Nc1cccc(-c2ccnc3c(C(=O)c4cccs4)cnn23)c1` [Example 131, 2-ethyl-N-[2-oxo-2-({3-[3-(thien-2-ylcarbonyl)pyrazolo[1,5-a]pyrimidin-7-yl]phenyl}amino)ethyl]butanamide]: the IC50 was 10 to 50 µM.
Still for that read-out and setting: the same measure for `CCCCNC(=O)Nc1cccc(-c2c(C)cnc3c(C(=O)c4cccs4)cnn23)c1` [Example 221, N-butyl-N′-{3-[6-methyl-3-(thien-2-ylcarbonyl)pyrazolo[1,5-a]pyrimidin-7-yl]phenyl}urea]: 10 to 50 µM.
Same read-out and setting: the same measure for `Cc1cnc2c(C(=O)c3cccs3)cnn2c1-c1cccc(NC(=O)NC(C)C)c1` [Example 222, N-isopropyl-N′-{3-[6-methyl-3-(thien-2-ylcarbonyl)pyrazolo[1,5-a]pyrimidin-7-yl]phenyl}urea]: 10 to 50 µM; for `Cc1cnc2c(C(=O)c3cccs3)cnn2c1-c1cccc(NC(=O)c2cccnc2)c1` [Example 220, N-{3-[6-methyl-3-(thien-2-ylcarbonyl)pyrazolo[1,5-a]pyrimidin-7-yl]phenyl}nicotinamide]: 10 to 50 µM.
`CC(C)(C)COC(=O)NCC(=O)Nc1cccc(-c2ccnc3c(C(=O)c4cccs4)cnn23)c1` [Example 121, neopentyl 2-oxo-2-({3-[3-(thien-2-ylcarbonyl)pyrazolo[1,5-a]pyrimidin-7-yl]phenyl}amino)ethylcarbamate]: the 50% inhibitory concentration (IC50) is 1 to 10 µM.
Still for that read-out and setting: as for `CCS(=O)(=O)Nc1cccc(-c2ccnc3c(C(=O)c4cccs4)cnn23)c1` [Example 28, N-{3-[3-(thien-2-ylcarbonyl)pyrazolo[1,5-a]pyrimidin-7-yl]phenyl}ethanesulfonamide], the figure is under 1 µM; as for `O=C(Cc1ccc2c(c1)OCO2)Nc1cccc(-c2ccnc3c(C(=O)c4cccs4)cnn23)c1` [Example 69, 2-(1,3-benzodioxol-5-yl)-N-{3-[3-(thien-2-ylcarbonyl)pyrazolo[1,5-a]pyrimidin-7-yl]phenyl}acetamide], under 1 µM; as for `COc1cccc(OC)c1C(=O)Nc1cccc(-c2ccnc3c(C(=O)c4cccs4)cnn23)c1` [Example 101, 2,6-dimethoxy-N-{3-[3-(thien-2-ylcarbonyl)pyrazolo[1,5-a]pyrimidin-7-yl]phenyl}benzamide], under 1 µM.

Values taken from patent publication US20060063784A1, “Method of using substituted pyrazolo [1,5-a] pyrimidines” (priority 2004, published 2006).
